Reference: patent publication US20240059698A1 (Accutar Biotechnology Inc., priority 2022, published 2024)

Experiments:
Format in all cases: cell-based
[1] = system: HCC827-YVMA cells (human ERBB2 exon20 insertion mutant A775_G776ins YVMA); assay: Cell growth inhibition (CellTiter-Glo), HCC827-YVMA; conditions: 72 h, HCC827-YVMA cells, 3 days, CellTiter-Glo, read-out: Cell growth inhibition, GI50 (nM) HCC827-YVMA
In short: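 HCC827 cells transduced with lentiviral codon-optimized mutant (ERBB2 A775_G776insYVMA or EGFR V769_D770insASV), endogenous EGFR knocked out by CRISPR, single clone selected. Cells seeded overnight in RPMI/10% FBS, then exposed to serially diluted compounds at 37 °C for 3 days; viability read by CellTiter-Glo luminescence.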

[2] = system: HCC827-SVD cells (human EGFR exon 20 insertion mutant D770_N771insSVD); assay: Cell growth inhibition (CellTiter-Glo), HCC827-SVD; conditions: 72 h, 3 days
In short: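 HCC827 cells with endogenous EGFR knocked out and lentivirally expressing the insertion mutant (single clone) were seeded at 5000 cells/well in RPMI with 10% FBS. After overnight, compounds added; 3 days at 37 °C, then CellTiter-Glo luminescence.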

HCC827 cells = assay: Cell growth inhibition (CellTiter-Glo), HCC827; conditions: Homo sapiens, 72 h, 3 days
Protocol: (§1) 2. Cell Growth Inhibition for HCC827, HCC827-SVD, HCC827-ASV, HCC827-YVMA, and A431.
(§2) HCC827(ATCC), HCC827-SVD, HCC827-ASV, and HCC827-YVMA cells were seeded in 96-well plates at 5000 cells/well in 90 μL of RPMI growth medium containing 10% FBS and 1% Penicillin Streptomycin. A431 (ATCC) cells were seeded in 96-well plates at 5000 cells/well in 90 μL of DMEM growth medium containing 10% FBS and 1% Penicillin Streptomycin. Cells were incubated at 37° C. overnight and then administered with 10 μL 10× test compounds prepared in the growth medium at various concentrations. After administration of the compounds, cells were incubated at 37° C. for 3 days. Before the CellTiter-Glo assay, the plates were equilibrated at room temperature for approximately 30 minutes. 100 ul of CellTiter-Glo reagent (Promega) was added to each well. The plates were then incubated at room temperature for 10 minutes and luminescence was recorded by the EnSight® multimode plate reader (PerkinElmer). Table 7 listed selected compounds in cellular growth assay.

A431 cells = assay: Cell growth inhibition (CellTiter-Glo), A431; conditions: Homo sapiens, A-431, 72 h, 3 days
Protocol: as §1, §2

## C=CC(=O)N1CCC(c2c[nH]c3ncnc(Nc4ccc(Oc5ccnc(N6CCOC(C)C6)c5)cc4F)c23)CC1 (stereo in doubt) [Compound 141, (S)-1-(4-(4-((2-fluoro-4-((2-(2-methylmorpholino)pyridin-4-yl)oxy)phenyl)amino)-7H-pyrrolo[2,3-d]pyrimidin-5-yl)piperidin-1-yl)prop-2-en-1-one]
[1]
  GI50: 50 to 200 nM
[2]
  GI50: 50 to 200 nM
HCC827 cells
  GI50: > 1000 nM
A431 cells
  GI50: > 1000 nM

## C=CC(=O)N1CCC(c2c[nH]c3ncnc(Nc4ccc(OCc5cc(C)ccn5)c(Cl)c4)c23)CC1 [Compound 110, 1-(4-(4-((3-chloro-4-((4-methylpyridin-2-yl)methoxy)phenyl)amino)-7H-pyrrolo[2,3-d]pyrimidin-5-yl)piperidin-1-yl)prop-2-en-1-one]
[1]
  GI50: < 50 nM
[2]
  GI50: < 50 nM
HCC827 cells
  GI50: < 50 nM
A431 cells
  GI50: 200 to 1000 nM

## C=CC(=O)N1CCC(c2c[nH]c3ncnc(Nc4ccc(OCc5ccccn5)c(F)c4)c23)CC1 [Compound 111, 1-(4-(4-((3-fluoro-4-(pyridin-2-ylmethoxy)phenyl)amino)-7H-pyrrolo[2,3-d]pyrimidin-5-yl)piperidin-1-yl)prop-2-en-1-one]
[1]
  GI50: < 50 nM
[2]
  GI50: < 50 nM
HCC827 cells
  GI50: < 50 nM
A431 cells
  GI50: 50 to 200 nM

## C=CC(=O)N1CCC(c2c[nH]c3ncnc(Nc4ccc(OCc5cc(C(F)(F)F)ccn5)c(Cl)c4)c23)CC1 [Compound 113, 1-(4-(4-((3-chloro-4-((4-(trifluoromethyl)pyridin-2-yl)methoxy)phenyl)amino)-7H-pyrrolo[2,3-d]pyrimidin-5-yl)piperidin-1-yl)prop-2-en-1-one]
[1]
  GI50: < 50 nM
[2]
  GI50: < 50 nM
HCC827 cells
  GI50: < 50 nM
A431 cells
  GI50: < 50 nM

## C=CC(=O)N1CCC(c2c[nH]c3ncnc(Nc4ccc(OCc5cnccn5)c(Cl)c4)c23)CC1 [Compound 116, 1-[4-[4-[3-chloro-4-(pyrazin-2-ylmethoxy)anilino]-7H-pyrrolo[2,3-d]pyrimidin-5-yl]-1-piperidyl]prop-2-en-1-one]
[1]
  GI50: < 50 nM
[2]
  GI50: < 50 nM
HCC827 cells
  GI50: < 50 nM
A431 cells
  GI50: 50 to 200 nM

## C=CC(=O)N1CCC(c2c[nH]c3ncnc(Nc4ccc(OCc5cscn5)c(Cl)c4)c23)CC1 [Compound 119, 1-[4-[4-[3-chloro-4-(thiazol-4-ylmethoxy)anilino]-7H-pyrrolo[2,3-d]pyrimidin-5-yl]-1-piperidyl]prop-2-en-1-one]
[1]
  GI50: < 50 nM
[2]
  GI50: < 50 nM
HCC827 cells
  GI50: < 50 nM
A431 cells
  GI50: 50 to 200 nM

## C=CC(=O)N1CCC(c2c[nH]c3ncnc(Nc4ccc(OCc5ncccn5)c(Cl)c4)c23)CC1 [Compound 128, 1-(4-(4-((3-chloro-4-(pyrimidin-2-ylmethoxy)phenyl)amino)-7H-pyrrolo[2,3-d]pyrimidin-5-yl)piperidin-1-yl)prop-2-en-1-one]
[1]
  GI50: < 50 nM
[2]
  GI50: < 50 nM
HCC827 cells
  GI50: < 50 nM

## C=CC(=O)N1CCC(c2c[nH]c3ncnc(Nc4ccc(Oc5ccnc(N6CC7CC7C6)c5)cc4F)c23)CC1 (centres unmarked) [Compound 131, 1-(4-(4-((4-((2-(3-azabicyclo[3.1.0]hexan-3-yl)pyridin-4-yl)oxy)-2-fluorophenyl)amino)-7H-pyrrolo[2,3-d]pyrimidin-5-yl)piperidin-1-yl)prop-2-en-1-one]
[1]
  GI50: 50 to 200 nM
[2]
  GI50: 50 to 200 nM
HCC827 cells
  GI50: > 1000 nM

## C=CC(=O)N1CCC(c2c[nH]c3ncnc(Nc4ccc(Oc5ccnc(N(C)C6CC(F)(F)C6)c5)cc4F)c23)CC1 [Compound 132, 1-(4-(4-((4-((2-((3,3-difluorocycloButyl)(methyl)amino)pyridin-4-yl)oxy)-2-fluorophenyl)amino)-7H-pyrrolo[2,3-d]pyrimidin-5-yl)piperidin-1-yl)prop-2-en-1-one]
[1]
  GI50: 50 to 200 nM
[2]
  GI50: 200 to 1000 nM
HCC827 cells
  GI50: > 1000 nM

## C=CC(=O)N1CCC(c2c[nH]c3ncnc(Nc4ccc(Oc5ccnc(-n6ccc(C(C)C)n6)c5)cc4F)c23)CC1 [Compound 133, 1-(4-(4-((2-fluoro-4-((2-(3-isopropyl-1H-pyrazol-1-yl)pyridin-4-yl)oxy)phenyl)amino)-7H-pyrrolo[2,3-d]pyrimidin-5-yl)piperidin-1-yl)prop-2-en-1-one]
[1]
  GI50: 50 to 200 nM
[2]
  GI50: 50 to 200 nM
HCC827 cells
  GI50: > 1000 nM

## C=CC(=O)N1CC(c2c[nH]c3ncnc(Nc4ccc(OCc5ccccn5)c(Cl)c4)c23)C1 [Compound 137, 1-(3-(4-((3-chloro-4-(pyridin-2-ylmethoxy)phenyl)amino)-7H-pyrrolo[2,3-d]pyrimidin-5-yl)azetidin-1-yl)prop-2-en-1-one]
[1]
  GI50: < 50 nM
[2]
  GI50: < 50 nM
HCC827 cells
  GI50: 50 to 200 nM
A431 cells
  GI50: > 1000 nM

## C=CC(=O)N1CCC(c2c[nH]c3ncnc(Nc4ccc(Oc5ccc(-c6cc(C)[nH]c(=O)c6)cc5)c(Cl)c4F)c23)CC1 [Compound 138, 4-(4-(4-((5-(1-acryloylpiperidin-4-yl)-7H-pyrrolo[2,3-d]pyrimidin-4-yl)amino)-2-chloro-3-fluorophenoxy)phenyl)-6-methylpyridin-2(1H)-one]
[1]
  GI50: 200 to 1000 nM
[2]
  GI50: 50 to 200 nM
HCC827 cells
  GI50: > 1000 nM
A431 cells
  GI50: > 1000 nM

## C=CC(=O)N1CCC(c2c[nH]c3ncnc(Nc4ccc(Oc5ccn(Cc6cc(Oc7ccccc7)ccn6)n5)cc4F)c23)CC1 [Compound 151, 1-(4-(4-((2-fluoro-4-((1-((4-phenoxypyridin-2-yl)methyl)-1H-pyrazol-3-yl)oxy)phenyl)amino)-7H-pyrrolo[2,3-d]pyrimidin-5-yl)piperidin-1-yl)prop-2-en-1-one]
[1]
  GI50: 50 to 200 nM
[2]
  GI50: 200 to 1000 nM
HCC827 cells
  GI50: > 1000 nM

## C=CC(=O)N1CCC(c2n[nH]c3ncnc(Nc4ccc(Oc5ccc(-c6cc(-c7ccccc7)[nH]c(=O)c6)nc5)c(Cl)c4F)c23)CC1 [Compound 170, 5-(4-((3-(1-acryloylpiperidin-4-yl)-1H-pyrazolo[3,4-d]pyrimidin-4-yl)amino)-2-chloro-3-fluorophenoxy)-6′-phenyl-[2,4′-bipyridin]-2′(1′H)-one]
[1]
  GI50: 50 to 200 nM
[2]
  GI50: 50 to 200 nM
HCC827 cells
  GI50: 200 to 1000 nM

## C=CC(=O)N1CCC(c2n[nH]c3ncnc(Nc4ccc(Oc5nc(-c6ccc(OC)nc6)cs5)cc4F)c23)CC1 [Compound 189, 1-(4-(4-((2-fluoro-4-((4-(6-methoxypyridin-3-yl)thiazol-2-yl)oxy)phenyl)amino)-1H-pyrazolo[3,4-d]pyrimidin-3-yl)piperidin-1-yl)prop-2-en-1-one]
[1]
  GI50: 200 to 1000 nM
[2]
  GI50: 200 to 1000 nM
HCC827 cells
  GI50: > 1000 nM

## C=CC(=O)N1CCC(c2n[nH]c3ncnc(Nc4ccc(Oc5ccnc(NC(=O)C6CCCC6)c5)cc4F)c23)CC1 [Compound 193, N-(4-(4-((3-(1-acryloylpiperidin-4-yl)-1H-pyrazolo[3,4-d]pyrimidin-4-yl)amino)-3-fluorophenoxy)pyridin-2-yl)cyclopentanecarboxamide]
[1]
  GI50: 50 to 200 nM
[2]
  GI50: 50 to 200 nM
HCC827 cells
  GI50: > 1000 nM

## C=CC(=O)N1CCC(c2n[nH]c3ncnc(Nc4ccc(Oc5ccnc(NC(=O)C6CCOCC6)c5)cc4F)c23)CC1 [Compound 194, N-(4-(4-((3-(1-acryloylpiperidin-4-yl)-1H-pyrazolo[3,4-d]pyrimidin-4-yl)amino)-3-fluorophenoxy)pyridin-2-yl)tetrahydro-2H-pyran-4-carboxamide]
[1]
  GI50: 200 to 1000 nM
[2]
  GI50: 200 to 1000 nM
HCC827 cells
  GI50: > 1000 nM
